Test results: the supplement of paper PMC12137928
Counter-ions that a name gives are not always drawn.

Experiments:
HCT116 [1] = assay: efficacy (maximum % inhibition of viability vs DMSO); higher = more cytotoxic; details: 72 h
How it was run: (§1)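 HCT116 cells were seeded at 250 per well in 1536-well plates and left 5 h to attach. CellTiter-Glo luminescence was scaled to vehicle (0%) and positive control (-100%), then pattern-corrected. IC50 and maximal efficacy came from four-parameter Hill fits.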

HCT116 [2] = details: 72 h
How it was run: as §1

Structure (SMILES)	IC50 cell viability (HCT116 [2]; ICRF193 0 nM) [µM]	IC50 cell viability (HCT116 [2]; ICRF193 200 nM) [µM]	efficacy (HCT116 [1]; ICRF193 0 nM) [%]	efficacy (HCT116 [1]; ICRF193 200 nM) [%]
CO[C@@H]1[C@@H](O[C@@H]2O[C@H](C)[C@@H](O[C@H]3C[C@@](C)(O)[C@@H](OC(=O)CC(C)C)[C@H](C)O3)[C@H](N(C)C)[C@H]2O)[C@@H](CC=O)C[C@@H](C)C(=O)/C=C/[C@@H]2O[C@H]2C[C@@H](C)OC(=O)C[C@H]1OC(C)=O [Carbomycin A]	25.9	20.6	93	91.2
CC[C@@H](C(=O)O)[C@@H]1O[C@@H]([C@@H](C)[C@H](O)[C@H](C)C(=O)[C@H](CC)[C@H]2O[C@]3(C=C[C@@H](O)[C@]4(CC[C@@](C)([C@H]5CC[C@](O)(CC)[C@H](C)O5)O4)O3)[C@H](C)C[C@@H]2C)[C@@H](C)C[C@@H]1C [Narasin]	3.66	2.91	80.5	94.5
Cc1[nH]c(/C=C2\C(=O)Nc3ccc(F)cc32)c(C)c1C(=O)NCCN1CCCC1 [Toceranib]	8.96	8.96	102	94.9
CO[C@H]1C[C@@H]2CC[C@@H](C)[C@@](O)(O2)C(=O)C(=O)N2CCCC[C@H]2C(=O)O[C@H]([C@H](C)C[C@@H]2CC[C@@H](O)[C@H](OC)C2)CC(=O)[C@H](C)/C=C(\C)[C@@H](O)[C@@H](OC)C(=O)[C@H](C)C[C@H](C)/C=C/C=C/C=C/1C [Sirolimus]	20.6	29.1	91.7	88.6
NCCCC[C@H](NC(=O)[C@@H]1CCCN1C(=O)[C@@H]1CSSC[C@H](N)C(=O)N[C@@H](Cc2ccc(O)cc2)C(=O)N[C@@H](Cc2ccccc2)C(=O)N[C@@H](CCC(N)=O)C(=O)N[C@@H](CC(N)=O)C(=O)N1)C(=O)NCC(N)=O [Lypressin]	> 45.8	29.1	–	51.6
C=C1/C(=C\C=C2/CCC[C@]3(C)[C@@H]([C@H](C)CC[C@@H](O)C(C)C)CC[C@@H]23)C[C@@H](O)C[C@@H]1O [Tacalcitol]	23.1	20.6	49.2	53.2
CC(CCc1ccccc1)NC(C)C(O)c1ccc(O)cc1 (configuration not stated) [Nylidrin]	> 45.8	16.4	–	40.7
O=C(Nc1ccc(Cl)cc1)Nc1ccc(Cl)c(Cl)c1 [Triclocarban]	18.3	13	102	104
CN1C[C@H](C(=O)N[C@]2(C)O[C@@]3(O)[C@@H]4CCCN4C(=O)[C@H](Cc4ccccc4)N3C2=O)C=C2c3cccc4[nH]cc(c34)C[C@H]21 [Ergotamine tartrate]	> 45.8	18.3	–	70.8
Oc1ccc(Cl)cc1Cc1cc(Cl)ccc1O [Dichlorophen]	10.3	8.2	106	99.9
Clc1cccc(Cl)c1NC1=NCCN1 [Clonidine]	> 45.8	4.11	–	68.5
COC(=O)[C@H]1[C@H]2C[C@@H]3c4[nH]c5cc(OC)ccc5c4CCN3C[C@H]2C[C@@H](OC(=O)c2cc(OC)c(OC)c(OC)c2)[C@@H]1OC [Reserpine]	> 45.8	16.4	–	42.6
O[C@@H](CNC[C@H](O)[C@H]1CCc2cc(F)ccc2O1)[C@@H]1CCc2cc(F)ccc2O1 (racemic) [rac Nebivolol hydrochloride]	29.1	20.6	121	98.2
CC[C@@]1([C@@H]2O[C@@H]([C@H]3O[C@@](O)(CO)[C@H](C)C[C@@H]3C)C[C@@H]2C)CC[C@H]([C@]2(C)CC[C@]3(C[C@H](O)[C@@H](C)[C@@H]([C@@H](C)[C@@H](OC)[C@H](C)C(=O)O)O3)O2)O1 [Monensin sodium salt]	3.18	3.18	81.1	83.4
CC[C@H]1OC(=O)[C@H](C)[C@@H](O[C@H]2C[C@@](C)(OC)[C@@H](O)[C@H](C)O2)[C@H](C)[C@@H](O[C@@H]2O[C@H](C)C[C@H](N(C)C)[C@H]2O)[C@](C)(O)C[C@@H](C)CN(C)[C@H](C)[C@@H](O)[C@]1(C)O [Azithromycin]	> 45.8	20.6	–	68.7
CCCCC(=O)O [Valeric acid]	> 45.8	29.1	–	62

Structure (SMILES)	IC50 cell viability (HCT116 [2]; ICRF193 0 nM) [µM]	IC50 cell viability (HCT116 [2]; ICRF193 200 nM) [µM]	efficacy (HCT116 [1]; ICRF193 0 nM) [%]	efficacy (HCT116 [1]; ICRF193 200 nM) [%]
Cc1ccc(NC(=O)c2ccc(CN3CCN(C)CC3)cc2)cc1Nc1nc(-c2cccnc2)cs1 [Masitinib]	11.6	20.6	43.6	66.8
C[C@H](Oc1cc(-c2cnn(C3CCNCC3)c2)cnc1N)c1c(Cl)ccc(F)c1Cl [(S)-Crizotinib]	20.6	18.3	89.7	91.2
COc1cc2c(cc1O)CCN[C@]21CS[C@@H]2c3c(OC(C)=O)c(C)c4c(c3[C@H](COC1=O)N1[C@@H]2[C@H]2c3c(cc(C)c(OC)c3O)C[C@@H]([C@@H]1O)N2C)OCO4 [Trabectedin]	0.0119	0.00473	57.2	74.4
C[C@H]1O[C@@H](O[C@H]2[C@@H](O)C[C@H](O[C@H]3[C@@H](O)C[C@H](O[C@H]4CC[C@@]5(C)[C@H](CC[C@@H]6[C@@H]5C[C@@H](O)[C@]5(C)[C@@H](C7=CC(=O)OC7)CC[C@]65O)C4)O[C@@H]3C)O[C@@H]2C)C[C@H](O)[C@@H]1O [Digoxin]	0.183	0.146	76.2	83.8
O=c1[nH]c(=O)n([C@H]2C[C@H](O)[C@@H](CO)O2)cc1F [Floxuridine]	2.91	1.16	49.1	43
CC(C)OC(=O)CCC/C=C\C[C@@H]1[C@@H](/C=C/[C@@H](O)COc2cccc(C(F)(F)F)c2)[C@H](O)C[C@@H]1O [Travoprost]	14.6	20.6	87.4	96.5
O=C1c2c(O)ccc(O)c2C(=O)c2c(NCCNCCO)ccc(NCCNCCO)c21 [Mitoxantrone]	2.31	2.06	90.7	96.4
CC[C@@]1(O)C(=O)OCc2c1cc1n(c2=O)Cc2cc3c([N+](=O)[O-])cccc3nc2-1 [Rubitecan]	0.447	0.0891	81.2	96.5
CNC(=O)c1cc(Oc2ccc(NC(=O)Nc3ccc(Cl)c(C(F)(F)F)c3)cc2)ccn1 [Sorafenib]	20.6	29.1	113	52.1
COc1cc([C@@H]2c3cc4c(cc3[C@@H](O[C@@H]3O[C@@H]5CO[C@@H](C)O[C@H]5[C@H](O)[C@H]3O)[C@H]3COC(=O)[C@H]23)OCO4)cc(OC)c1O [Etoposide]	29.1	2.91	66.7	99.1
C=C1C[C@H]2[C@@H]3C=C(C)C4=CC(=O)CC[C@]4(C)[C@H]3CC[C@]2(C)[C@@]1(OC(C)=O)C(C)=O [Melengestrol acetate]	> 45.8	18.3	–	40.9
O=C(N[C@H]1CCS[C@H]2CCC[C@@H](C(=O)O)N2C1=O)[C@@H](S)Cc1ccccc1 [Omapatrilat]	> 45.8	6.51	–	86.5
CN(C)[C@@H]1C(O)=C(C(N)=O)C(=O)[C@@]2(O)C(O)=C3C(=O)c4c(O)ccc(Cl)c4[C@@H](O)[C@H]3C[C@@H]12 [Demeclocycline hydrochloride]	> 45.8	16.4	–	40
C[C@]12CC[C@H]3[C@@H](CCC4=CC(=O)CC[C@@H]43)[C@@H]1CC[C@@H]2OC(=O)CCc1ccco1 [Nandrolone furylpropionate]	29.1	29.1	93.3	88
NC(=O)C1(N2CCCCC2)CCN(CCCN2c3ccccc3CCc3ccc(Cl)cc32)CC1 [Clocapramine]	23.1	18.3	117	105

Continued, in another order:

IC50 cell viability (HCT116 [2]; ICRF193 0 nM) [µM]	IC50 cell viability (HCT116 [2]; ICRF193 200 nM) [µM]	Structure (SMILES)	efficacy (HCT116 [1]; ICRF193 0 nM) [%]	efficacy (HCT116 [1]; ICRF193 200 nM) [%]
20.6	23.1	COc1ccc(CN2CCN(C(c3ccc(F)cc3)c3ccc(F)cc3)CC2)c(OC)c1OC [Lomerizine dihydrochloride]	130	104
23.1	18.3	CC1=C(C(=O)OC(C)C)C(c2cccc([N+](=O)[O-])c2)C(C(=O)OC2CN(C(c3ccccc3)c3ccccc3)C2)=C(N)N1 (configuration not stated) [Azelnidipine]	124	98
18.3	18.3	CCN(CC)Cc1cc(Nc2ccnc3cc(Cl)ccc23)ccc1O [Amodiaquin dihydrochloride dihydrate]	85.2	101
11.6	10.3	CCCCCCOc1ccc(C(=N)N(CCCC)CCCC)c2ccccc12 [Bunamidine hydrochloride]	104	106
0.326	0.164	CN(C)c1ccc(C(=C2C=CC(=[N+](C)C)C=C2)c2ccc(N(C)C)cc2)cc1 [Methylrosaniline chloride]	89.5	90.4
20.6	25.9	Clc1ccc(CCC(Cn2ccnc2)Sc2c(Cl)cccc2Cl)cc1 (configuration not stated) [Butoconazole nitrate]	96	93.9
> 45.8	29.1	CNCC[C@@H](Oc1ccccc1C)c1ccccc1 [Atomoxetine hydrochloride]	–	81.3
20.6	18.3	Fc1ccc(C(c2ccc(F)cc2)N2CCN(C/C=C/c3ccccc3)CC2)cc1 [Flunarizine]	109	80
18.3	20.6	COCCOC(=O)C1=C(C)NC(C)=C(C(=O)OC/C=C/c2ccccc2)C1c1cccc([N+](=O)[O-])c1 (configuration not stated) [Cilnidipine]	82.3	103
11.6	9.2	CCCCC1C(=O)N(c2ccccc2)N(c2ccc(O)cc2)C1=O (configuration not stated) [Oxyphenbutazone]	103	55.1
18.3	23.1	CN1CCC[C@@H]1CCO[C@](C)(c1ccccc1)c1ccc(Cl)cc1 [Clemastine fumarate]	88	114
23.1	18.3	CSc1ccc2c(c1)N(CCC1CCCCN1C)c1ccccc1S2 (configuration not stated) [Thioridazine]	115	95
14.6	18.3	CN(C)C(=O)C(CCN1CCC(O)(c2ccc(Cl)cc2)CC1)(c1ccccc1)c1ccccc1 [Loperamide hydrochloride]	59.4	54.9
> 45.8	29.1	O=C(Oc1cccc2cccnc12)c1ccccc1 [Benzoxiquine]	–	70.8
14.6	18.3	CCc1nn(CCCN2CCN(c3cccc(Cl)c3)CC2)c(=O)n1CCOc1ccccc1 [Nefazodone hydrochloride]	42.5	63.8
13	18.3	CC(=O)Oc1ccccc1C(=O)Nc1ncc([N+](=O)[O-])s1 [Nitazoxanide]	104	122
> 45.8	18.3	CNCCCN1c2ccccc2CCc2ccccc21 [Desipramine hydrochloride]	–	47.5
> 45.8	29.1	Cc1cccc(CN2CCN(C(c3ccccc3)c3ccc(Cl)cc3)CC2)c1 (configuration not stated) [Meclizine hydrochloride]	–	49.1
